The test system of one data set is TNF-α. The data set can be described thus: Septic shock model (LPS induced TNF alpha release). To be noted: 3, 10 and 20 mg/kg, po, once, 30 min before LPS. The class given is in vivo, BALB/cJ female mice. Here is the method: Injection of lipopolysaccharide (LPS) induces a rapid release of soluble tumour necrosis factor (TNF-α) into the periphery. This model is used to analyse prospective blockers of TNF release in vivo.
Six BALB/cJ female mice (20 g) per group are treated at the intended dosing once, po. Thirty minutes later, LPS (15 mg/kg; E. coli serotype 0111:B4) is injected ip. Ninety minutes later, mice are euthanized and blood is collected. Circulating TNF alpha levels are determined using commercially available ELISA kits. Dexamethasone (5 mg/kg) is used as a reference anti-inflammatory compound. Compound 1 is efficacious at 3, 10 and 20 mg/kg, po.

A short description of data set [1]: Thermodynamic aqueous solubility study by HPLC (Example 5). The class given is physicochemical. Particulars: thermodynamic from solid. An excerpt: Quantitation is done by HPLC with reference to a standard calibration curve. […] If there is sufficient solid remaining, the XRPD is collected.
Data set [2] is described as follows: Aqueous solubility determination (Example 4). The class given is physicochemical. Here is the method:
Each salt is suspended in water and shaken for 24 h at 22° C. and 400 rpm. The resulting suspensions are filtered (0.2-μm filter). The obtained solids are analyzed by FT Raman. The pH of the filtrate is measured, and the concentration of the free base is determined by HPLC.

The subject of data set [3] is Collagen-Induced Arthritis model. The data set can be described thus: CIA model. To be noted: 3 or 30 mg/kg/d, daily for 14 days. It is filed as in vivo, mouse. Here is the method:
Complete Freund Adjuvant/Collagen II (CFA/Coll II, bovine) is injected (1 mg/mL, 100 μL per animal) into the tail (intradermic) at the start of the experiment. Incomplete Freund Adjuvant /Collagen II (IFA/Coll II) is injected into the tail at the same level (1 mg/mL, 100 μL per animal) 21 days after CFA/Coll II injection. Animals are then randomized based on score and assigned to treatment groups assuring an equal distribution of score in the different groups. Treatment with either the test compound (1 mg/kg/d, 3 mg/kg/d or 30 mg/kg/d), positive control (Enbrel, 10 mg/kg/3× week, ip) or vehicle (Methyl Cellulose, 1% DMSO) starts at day 8 post IFA/Coll II-boost (i.e. […] of the experiment). Animals are dosed daily with the test compound, positive control or vehicle for 14 days. The animals are scored daily for clinical symptoms, scoring is reported for the individual paws. During the treatment period the body weight of the animals is monitored. Bone protection is analysed by x-ray imaging.

Converted amounts (≈) assume the structure as drawn.

In general, solubility refers to the concentration that dissolves in the medium under given conditions. As for `CC(C)N1C[C@@H]2C[C@H]1CN2c1ccc(Nc2ncc(-c3coc(C(N)=O)c3)n3ncnc23)cc1` [Compound 1, 4-{8-[4-((1S,4S)-5-Isopropyl-2,5-diaza-bicyclo[2.2.1]hept-2-yl)-phenylamino]-[1,2,4]triazolo[1,5-a]pyrazin-5-yl}-furan-2-carboxamide], in the data set with TNF-α, the “efficacy in septic shock model (circulating TNF alpha levels)” value is listed as “efficacious”. The solubility in data set [1] (buffer pH 2.0, pH 2, aqueous buffer) was determined as 300 µg/mL (≈ 654 µM); in data set [1] (buffer pH 7.4, pH 7.4, aqueous buffer), 10 µg/mL (≈ 21.8 µM); in data set [1] (pure water, water), 10 µg/mL (≈ 21.8 µM). Further, in data set [2] (filtrate of the aqueous suspension after 24 h), the “Filtrate pH” value worked out at 6.9. The solubility at 24 h in data set [2] (thermodynamic from solid, water, shaken 24 h at 22° C., free base concentration by HPLC, read-out: Measured solubility) is 70 µg/mL (≈ 153 µM). In addition, in data set [3], the “efficacy in CIA model” value is listed as “efficacious”.

Source of the values: patent publication US20110118269A1, “FUSED PYRAZINE COMPOUNDS AS THEIR SALTS, USEFUL FOR THE TREATMENT OF DEGENERATIVE AND INFLAMMATORY DISEASES” (priority 2009, published 2011).
